Data from patent US6479482B2, “Alkylamine derivatives of dihydropyridine NPY antagonists” (Bristol-Myers Squibb Company, priority 2000, dated 2002).

Tests used:
[1] = molecular target: T1, I-125 Bolton-Hunter labeled NPY in human neuroblastoma cells (SK-N-MC) (Homo sapiens, UniProt P25929); conditions: cited from earlier work
T1 construct: displaces I-125 Bolton-Hunter labeled NPY in human neuroblastoma cells (SK-N-MC); endogenous in cells; host or cells: SK-N-MC human neuroblastoma cells
T1 sequence (P25929 1-384): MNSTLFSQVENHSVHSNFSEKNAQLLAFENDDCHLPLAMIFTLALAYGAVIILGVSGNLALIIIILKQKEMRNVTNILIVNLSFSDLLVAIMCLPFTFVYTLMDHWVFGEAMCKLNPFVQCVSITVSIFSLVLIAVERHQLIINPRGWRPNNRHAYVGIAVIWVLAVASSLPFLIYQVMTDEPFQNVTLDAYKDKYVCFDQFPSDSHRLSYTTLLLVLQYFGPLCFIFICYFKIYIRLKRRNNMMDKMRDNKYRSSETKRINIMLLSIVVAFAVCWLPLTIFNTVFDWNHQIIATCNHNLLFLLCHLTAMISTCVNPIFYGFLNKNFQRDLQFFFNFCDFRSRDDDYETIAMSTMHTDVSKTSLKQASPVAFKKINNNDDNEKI

[2] = test system: NPY-induced increase in intracellular Ca^++ in SK-N-MC cells; conditions: cited from earlier work
[3] = test system: NPY-induced pressor response; conditions: pithed rat; cited from earlier work
[4] = test system: NPY-induced contractions in guinea pig basilar artery; conditions: cited from earlier work
[5] = test system: NPY-induced Ca^++ entry in HEL cells; conditions: cited from earlier work
[6] = molecular target: T2, I-125 labeled NPY and PYY in human neuroblastoma cells (Homo sapiens, UniProt P25929); conditions: cited from earlier work
T2 construct: displacing I-125 labeled NPY and PYY in human neuroblastoma cells; endogenous in cells
T2 sequence (P25929 1-384): T1 sequence (P25929 1-384)

[7] = test system: NPY-related increases in diastolic blood pressure; conditions: anesthetized guinea pig; cited from earlier work

| melting point | Compound | other results |
| --- | --- | --- |
| 145 to 150 °C | COC(=O)C1=C(C)NC(C)=C(C(=O)OC)C1c1cccc(NC(=O)NCCCN2CCN(CC3CC3)CC2)c1.Cl.Cl | – |
| 175 to 180 °C | COC(=O)C1=C(C)NC(C)=C(C(=O)OC)C1c1cccc(NC(=O)NCCCN2CCN(C(C)(C)C)CC2)c1.Cl.Cl | – |
| 195 to 200 °C | COC(=O)C1=C(C)NC(C)=C(C(=O)OC)C1c1cccc(NC(=O)NCCCN2CCN(C3CCCC3)CC2)c1.Cl.Cl | – |
| 120 to 130 °C | COC(=O)C1=C(C)NC(C)=C(C(=O)OC)C1c1cccc(NC(=O)NCCCN2CCNCC2)c1.Cl.Cl | – |
| 70 to 75 °C | COC(=O)C1=C(C)NC(C)=C(C(=O)OC)C1c1cccc(NC(=O)NCCCN2CCC(=O)CC2)c1.Cl | – |
| 120 to 125 °C | CCN1CCN(CCCNC(=O)Nc2cccc(C3C(C(=O)OC)=C(C)NC(C)=C3C(=O)OC)c2)CC1.Cl.Cl | – |
| 190 to 200 °C | CCCN1CCN(CCCNC(=O)Nc2cccc(C3C(C(=O)OC)=C(C)NC(C)=C3C(=O)OC)c2)CC1.Cl.Cl | – |
| 170 to 180 °C | COC(=O)C1=C(C)NC(C)=C(C(=O)OC)C1c1cccc(NC(=O)NCCCN2CCN(C(C)C)CC2)c1.Cl.Cl | – |
| 145 to 150 °C | CCCCN1CCN(CCCNC(=O)Nc2cccc(C3C(C(=O)OC)=C(C)NC(C)=C3C(=O)OC)c2)CC1.Cl.Cl | – |
| 165 to 170 °C | COC(=O)C1=C(C)NC(C)=C(C(=O)OC)C1c1cccc(NC(=O)NCCCN2CCN(CC(C)C)CC2)c1.Cl.Cl | – |
| – | NC(N)=NCCC[C@@H](NC(=O)C(c1ccccc1)c1ccccc1)C(=O)NCc1ccc(O)cc1 [BIBP 3226] | displacement of I-125 Bolton-Hunter labeled NPY [1]: displaces; antagonism of NPY-induced increase in intracellular Ca++ [2]: antagonized; antagonism of NPY-induced pressor response [3]: antagonizing |
| – | O=P(O)(O)OC1[C@H](OP(=O)(O)O)[C@H](O)C(O)[C@H](O)[C@H]1OP(=O)(O)O (stereo partly drawn) [D-Myo-inositol-1,2,6-triphosphate] | antagonism of NPY-induced contractions [4]: potent but non-competitive antagonist |
| 125 to 130 °C | COC(=O)C1=C(C)NC(C)=C(C(=O)OC)C1c1cccc(NC(=O)NCCCN2CCN(C(=O)OC(C)(C)C)CC2)c1 [Example 13, 4-[3-[[[[3-[4-[(1,1-Dimethylethoxy)carbonyl]-1-piperazinyl]propyl]amino]-carbonyl]amino]phenyl]-1,4-dihydro-2,6-dimethyl-3,5-pyridinedicarboxylic acid, dimethyl ester] | – |
| 100 to 105 °C | COC(=O)C1=C(C)NC(C)=C(C(=O)OC)C1c1cccc(NC(=O)NCCCN2CCC3(CC2)OCCO3)c1 [Example 14, 4-[3-[[[[3-(1,4-Dioxa-8-azaspiro[4.5]decan-8-yl)propyl]amino]carbonyl]-amino]phenyl]-1,4-dihydro-2,6-dimethyl-3,5-pyridinedicarboxylic acid, dimethyl ester] | – |
| 188 to 190 °C | COC(=O)C1=C(C)NC(C)=C(C(=O)OC)C1c1ccc(F)c(NC(=O)NCCCN2CCC(C)CC2)c1 [Example 17, 4-[4-Fluoro-3-[[[[3-(4-methyl-1-piperidinyl)propyl]amino]carbonyl]-amino]phenyl]-1,4-dihydro-2,6-dimethyl-3,5-pyridinedicarboxylic acid, dimethyl ester] | – |
| 176 to 179 °C | COC(=O)C1=C(C)NC(C)=C(C(=O)OC)C1c1ccc(F)c(NC(=O)NCCCN2CCC(C(C)C)CC2)c1 [Example 20, 4-[4-Fluoro-3-[[[[3-[4-(1-methylethyl)-1-piperidinyl]propyl]amino]-carbonyl]amino]phenyl]-1,4-dihydro-2,6-dimethyl-3,5-pyridinedicarboxylic acid, dimethyl ester] | – |
| 191 to 193 °C | COC(=O)C1=C(C)NC(C)=C(C(=O)OC)C1c1ccc(F)c(NC(=O)NCCCN2CCC(C(C)(C)C)CC2)c1 [Example 21, 4-[4-Fluoro-3-[[[[3-[4-(1,1-dimethylethyl)-1-piperidinyl]propyl]amino]-carbonyl]amino]phenyl]-1,4-dihydro-2,6-dimethyl-3,5-pyridinedicarboxylic acid, dimethyl ester] | – |
| – | N=C(NCCCc1cnc[nH]1)NCCC(c1cc(F)cc(F)c1)c1ccccn1 (stereo not shown) [He 90481] | pA2, antagonism of NPY-induced Ca++ entry [5]: 4.43 |
| – | CN(C)CC1CCC(CN=C(N)c2ccc(C[C@@H](NC(=O)[C@@H](Cc3ccccc3)NS(=O)(=O)c3ccc4ccccc4c3)C(=O)N3CCCC3)cc2)CC1 (stereo partly shown) [SR 120819A] | displacement of I-125 labeled NPY and PYY [6]: displacing; antagonism of NPY-related increases in diastolic blood pressure [7]: antagonized |
